According to PMC12809495, “Potential 14-3-3 binding sites in sirtuins reveal extended phosphosite-recognition modes” (Acta Crystallographica Section F: Structural Biology …, 2026):
Several values for one entry are separate records, joined by “and”; a condition that tells them apart may be missing. Equal values may be shown once. Where a SMILES comes first, the peptide text is derived from it. Where no end group is shown, it is not given here. [ ]: non-standard residue; d: D form. pS = N[C@@H](COP(=O)(O)O)C(=O)O

B2: 14-3-3σ-ΔC (C-terminally truncated human 14-3-3σ) (domain or fragment, UniProt P31947 1-231, looked up)
chain: MERASLIQKAKLAEQAERYEDMAAFMKGAVEKGEELSCEERNLLSVAYKNVVGGQRAAWRVLSSIEQKSNEEGSEEKGPEVREYREKVETELQGVCDTVLGLLDSHLIKEAGDAESRVFYLKMKGDYYRYLAEVATGDDKKRIIDSARSAYQEAMDISKKEMPPTNPIRLGLALNFSVFHYEIANSPEEAISLAKTTFDEAMADLHTLSEDSYKDSTLIMQLLRDNLTLWT
notes: 14-3-3σ, human, C-terminally truncated gene fragment (ΔC) cloned into pPROEX-HTb; the structures show 'all 231 residues of the 14-3-3 monomer'; No removal of the His6 tag is described; The dimer in the crystals is formed with a symmetry mate; also called 14-3-3-ΔC; source: E. coli BL21 Rosetta (DE3), purified (nickel-nitrilotriacetic acid column)

Columns and labels:
[1] = target: T1, 14-3-3 isoform gamma (Homo sapiens, UniProt P61981); experiment: Label-free microscale thermophoresis (MST) binding, 14-3-3 gamma; details: 0.6 µM 14-3-3 protein, 25 mM MES pH 6.5, 5 mM MgCl2, 5 mM CaCl2, 25°C, Kd from duplicate measurements, aggr. = no successful experiment
T1 construct: His6; made in house; host or cells: Escherichia coli BL21 Rosetta (DE3)
T1 sequence (P61981 1-247): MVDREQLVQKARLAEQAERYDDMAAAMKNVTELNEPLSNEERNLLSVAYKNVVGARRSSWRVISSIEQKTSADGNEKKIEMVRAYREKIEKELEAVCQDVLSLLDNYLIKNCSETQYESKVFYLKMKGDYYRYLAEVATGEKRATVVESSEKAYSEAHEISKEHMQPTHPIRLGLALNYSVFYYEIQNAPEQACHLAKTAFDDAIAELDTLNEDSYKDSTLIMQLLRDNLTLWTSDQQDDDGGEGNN
Procedure: (§1) The binding of phosphorylated sirtuin peptides (Fig. 1 ▸) was analyzed using the change in the intrinsic fluorescence signal of the 14-3-3 proteins measured with label-free microscale thermophoresis using a Nanotemper Monolith NT.LabelFree or NT.115. A typical binding experiment using 0.6 µM 14-3-3 protein was performed in a modified MST buffer consisting of 25 mM MES pH 6.5, 5 mM MgCl2, 5 mM CaCl2. The measurements were performed at 25°C using a LED power of 10–40%. All measurements were performed at least in duplicate, and the results shown are representative measurements individually fitted using GraFit 7 (Erathicus Software, Horley, United Kingdom).
Figure 1 Classification and analysis of sirtuin PSSM results for potential 14-3-3 phosphoserine binding sites. Peptides with a gray background were not analyzed experimentally. Score is the overall PSSM score for the phosphorylation site; rank is the order within the 17 proposed sirtuin binding sites. Conserved residues in the 14-3-3 motifs are marked in green. Residues with restricted (proline) or very flexible (glycine) protein backbone or with a very large side chain (tryptophan) are marked in red. Amino acids with the same or similar hydrophobicity/size are shown in magenta. Kd values from duplicate measurements are colored green for Kd < 100 µM. Fields marked in red indicate no binding or no successful experiment. […]

[2] = target: T2, 14-3-3 isoform epsilon (Homo sapiens, UniProt P62258); experiment: Label-free microscale thermophoresis (MST) binding, 14-3-3 epsilon
T2 construct: His6; made in house; host or cells: Escherichia coli BL21 Rosetta (DE3)
T2 sequence (P62258 1-255): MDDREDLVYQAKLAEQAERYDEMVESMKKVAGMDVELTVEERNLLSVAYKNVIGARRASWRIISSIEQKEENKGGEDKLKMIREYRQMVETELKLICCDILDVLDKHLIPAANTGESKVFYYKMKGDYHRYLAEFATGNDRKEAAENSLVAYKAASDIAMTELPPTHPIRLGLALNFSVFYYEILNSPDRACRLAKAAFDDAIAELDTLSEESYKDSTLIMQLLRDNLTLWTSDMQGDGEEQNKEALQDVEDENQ
Procedure: as §1
(§2) Figure 1 Classification and analysis of sirtuin PSSM results for potential 14-3-3 phosphoserine binding sites. Peptides with a gray background were not analyzed experimentally. Score is the overall PSSM score for the phosphorylation site; rank is the order within the 17 proposed sirtuin binding sites. Conserved residues in the 14-3-3 motifs are marked in green. Residues with restricted (proline) or very flexible (glycine) protein backbone or with a very large side chain (tryptophan) are marked in red. Amino acids with the same or similar hydrophobicity/size are shown in magenta. Kd values from duplicate measurements are colored green for Kd < 100 µM. Fields marked in red indicate no binding or no successful experiment. TEXT PRINTED IN THE PICTURE: Sirt1 S26: Affinity estimates by MicroScale Thermophoresis [μM], 14-3-3 isoform sigma: none | Sirt1 S670: Affinity estimates by MicroScale Thermophoresis [μM], 14-3-3 isoform gamma: aggr.; Affinity estimates by MicroScale Thermophoresis [μM], 14-3-3 isoform epsilon: > 183; Affinity estimates by MicroScale Thermophoresis [μM], 14-3-3 isoform theta: 93; Affinity estimates by MicroScale Thermophoresis [μM], 14-3-3 isoform sigma: 5 | Sirt3 S103: Affinity estimates by MicroScale Thermophoresis [μM], 14-3-3 isoform gamma: aggr.; Affinity estimates by MicroScale Thermophoresis [μM], 14-3-3 isoform epsilon: > 267; Affinity estimates by MicroScale Thermophoresis [μM], 14-3-3 isoform theta: 52; Affinity estimates by MicroScale Thermophoresis [μM], 14-3-3 isoform sigma: 10 | Sirt3 S103wt: Affinity estimates by MicroScale Thermophoresis [μM], 14-3-3 isoform gamma: aggr.; Affinity estimates by MicroScale Thermophoresis [μM], 14-3-3 isoform theta: none; Affinity estimates by MicroScale Thermophoresis [μM], 14-3-3 isoform sigma: none | Sirt3 S105: Affinity estimates by MicroScale Thermophoresis [μM], 14-3-3 isoform gamma: aggr.; Affinity estimates by MicroScale Thermophoresis [μM], 14-3-3 isoform epsilon: > 215; Affinity estimates by MicroScale Thermophoresis [μM], 14-3-3 isoform theta: 60; Affinity estimates by MicroScale Thermophoresis [μM], 14-3-3 isoform sigma: none | Sirt5 S168: Affinity estimates by MicroScale Thermophoresis [μM], 14-3-3 isoform epsilon: aggr.; Affinity estimates by MicroScale Thermophoresis [μM], 14-3-3 isoform theta: aggr.; Affinity estimates by MicroScale Thermophoresis [μM], 14-3-3 isoform sigma: > 329 | Sirt6 T337: Affinity estimates by MicroScale Thermophoresis [μM], 14-3-3 isoform epsilon: > 420; Affinity estimates by MicroScale Thermophoresis [μM], 14-3-3 isoform sigma: 12 | Sirt6 S338: Affinity estimates by MicroScale Thermophoresis [μM], 14-3-3 isoform epsilon: 19; Affinity estimates by MicroScale Thermophoresis [μM], 14-3-3 isoform sigma: 24 | Sirt7 S136: Affinity estimates by MicroScale Thermophoresis [μM], 14-3-3 isoform epsilon: none; Affinity estimates by MicroScale Thermophoresis [μM], 14-3-3 isoform theta: 30; Affinity estimates by MicroScale Thermophoresis [μM], 14-3-3 isoform sigma: 49

[3] = target: T3, 14-3-3 isoform theta (Homo sapiens, UniProt P27348); experiment: Label-free microscale thermophoresis (MST) binding, 14-3-3 theta
T3 construct: His6; made in house; host or cells: Escherichia coli BL21 Rosetta (DE3)
T3 sequence (P27348 1-245): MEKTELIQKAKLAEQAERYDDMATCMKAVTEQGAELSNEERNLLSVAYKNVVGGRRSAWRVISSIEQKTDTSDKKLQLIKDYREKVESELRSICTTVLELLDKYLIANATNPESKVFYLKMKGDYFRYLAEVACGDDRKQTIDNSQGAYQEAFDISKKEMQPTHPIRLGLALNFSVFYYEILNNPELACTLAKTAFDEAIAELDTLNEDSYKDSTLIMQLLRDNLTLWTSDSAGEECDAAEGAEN
Procedure: as §1, §2

[4] = target: T4, 14-3-3σ-ΔC (Homo sapiens, UniProt P31947); experiment: Label-free microscale thermophoresis (MST) binding, 14-3-3σ; details: for Affinity estimates by MicroScale Thermophoresis, 14-3-3 isoform sigma (Kd): Fig. 1, label-free MST, 0.6 µM 14-3-3 protein, 25 mM MES pH 6.5, 5 mM MgCl2, 5 mM CaCl2, 25°C, Kd from duplicate measurements
T4 construct: His6; made in house; host or cells: Escherichia coli BL21 Rosetta (DE3)
T4 sequence (P31947 1-231 limits assumed): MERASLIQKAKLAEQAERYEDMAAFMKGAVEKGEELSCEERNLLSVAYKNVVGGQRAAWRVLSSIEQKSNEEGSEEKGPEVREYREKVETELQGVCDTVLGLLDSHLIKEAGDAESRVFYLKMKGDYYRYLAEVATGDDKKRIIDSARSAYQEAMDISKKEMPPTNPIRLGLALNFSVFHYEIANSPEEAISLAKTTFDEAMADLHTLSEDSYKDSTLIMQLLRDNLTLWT
Procedure: as §1, §2
For nine of the sites, including sites from all sirtuin isoforms except Sirt4, endecameric phosphopeptides were chemically synthesized for in vitro analysis. […]

[5] = target: T5, 14-3-3 epsilon (Homo sapiens); experiment: MST
T5 chain: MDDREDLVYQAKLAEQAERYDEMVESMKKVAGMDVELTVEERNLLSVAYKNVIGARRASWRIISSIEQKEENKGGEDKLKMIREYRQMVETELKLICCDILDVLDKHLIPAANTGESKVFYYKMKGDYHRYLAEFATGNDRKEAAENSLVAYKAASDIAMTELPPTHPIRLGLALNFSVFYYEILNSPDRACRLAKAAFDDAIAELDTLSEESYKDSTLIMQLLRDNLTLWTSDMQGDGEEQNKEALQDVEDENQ

[6] = target: T6, 14-3-3 theta (Homo sapiens); experiment: MST
T6 chain: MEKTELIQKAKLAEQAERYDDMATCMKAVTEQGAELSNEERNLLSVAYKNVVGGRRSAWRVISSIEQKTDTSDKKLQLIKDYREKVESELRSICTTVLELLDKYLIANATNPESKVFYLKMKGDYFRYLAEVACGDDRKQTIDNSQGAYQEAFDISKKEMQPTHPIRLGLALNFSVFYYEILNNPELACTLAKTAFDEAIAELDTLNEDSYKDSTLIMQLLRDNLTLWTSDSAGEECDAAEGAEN

[7] = target: 14-3-3σ-ΔC (C-terminally truncated human 14-3-3σ) (human) (UniProt P31947); experiment: ITC; 150 µM 14-3-3σ-ΔC in the cell, fourfold-concentrated phosphopeptide in the needle; 2 µl injections; 25°C; one-site fit; apparent
[8] = target: T7, 14-3-3σ-ΔC (C-terminally truncated human 14-3-3σ) (human, UniProt P31947 1-231); experiment: MST
T7 chain: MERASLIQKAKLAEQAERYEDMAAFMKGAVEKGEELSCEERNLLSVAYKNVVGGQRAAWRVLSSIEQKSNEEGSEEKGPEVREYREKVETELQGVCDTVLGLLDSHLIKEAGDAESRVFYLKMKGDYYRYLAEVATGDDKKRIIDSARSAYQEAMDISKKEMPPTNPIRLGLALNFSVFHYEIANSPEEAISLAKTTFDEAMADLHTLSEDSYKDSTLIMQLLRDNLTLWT

[9] = target: 14-3-3σ-ΔC (C-terminally truncated human 14-3-3σ) (human) (UniProt P31947); experiment: MST; label-free, intrinsic fluorescence of the 14-3-3 protein; 0.6 µM 14-3-3 protein titrated with peptide; 25 mM MES pH 6.5, 5 mM MgCl2, 5 mM CaCl2; 25°C
[10] = target: B2; experiment: as above; details: both partners purified
[11] = target: the molecule itself; experiment: crystal structure; protein and peptide mixed 1:1.5; 0.1 M HEPES-NaOH pH 7.5, 0.2 M CaCl2, 24-28% PEG 400, 5% glycerol, 1 mM TCEP, 4°C

## CC[C@H](C)[C@H](NC(=O)[C@H](CO)NC(=O)[C@H](CCCNC(=N)N)NC(=O)[C@H](CCCNC(=N)N)NC(=O)CN)C(=O)N[C@@H](COP(=O)(O)O)C(=O)N[C@@H](Cc1ccccc1)C(=O)N[C@@H](CO)C(=O)N[C@H](C(=O)NCC(=O)N[C@@H](C)C(=O)O)C(C)C [Sirt3^pS103] (H-GRRSI[pS]FSVGA-OH)
[1]
  Affinity estimates by MicroScale Thermophoresis, 14-3-3 isoform gamma (Kd): aggr.
[2]
  Kd: > 267 µM
[3]
  Kd: 52 µM
[4]
  Kd: 2.1 ± 1.1 µM

## CC[C@H](C)[C@H](NC(=O)[C@H](CO)NC(=O)[C@H](CCCNC(=N)N)NC(=O)[C@H](CCCNC(=N)N)NC(=O)CN)C(=O)N[C@@H](CO)C(=O)N[C@@H](Cc1ccccc1)C(=O)N[C@@H](CO)C(=O)N[C@H](C(=O)NCC(=O)N[C@@H](C)C(=O)O)C(C)C [Sirt3^S103] (H-GRRSISFSVGA-OH)
[1]
  Affinity estimates by MicroScale Thermophoresis, 14-3-3 isoform gamma (Kd): aggr.
[3]; label-free MST, 0.6 µM 14-3-3 protein, 25 mM MES pH 6.5, 5 mM MgCl2, 5 mM CaCl2, 25°C, Kd from duplicate measurements
  Affinity estimates by MicroScale Thermophoresis, 14-3-3 isoform theta (Kd): none
[4]
  Affinity estimates by MicroScale Thermophoresis, 14-3-3 isoform sigma (Kd): none

## CC[C@H](C)[C@H](NC(=O)[C@H](CO)NC(=O)[C@@H](N)CCCNC(=N)N)C(=O)N[C@@H](CO)C(=O)N[C@@H](Cc1ccccc1)C(=O)N[C@@H](COP(=O)(O)O)C(=O)N[C@H](C(=O)NCC(=O)N[C@@H](C)C(=O)N[C@@H](CO)C(=O)N[C@@H](CO)C(=O)O)C(C)C [Sirt3^pS105] (H-RSISF[pS]VGASS-OH)
[1]
  Affinity estimates by MicroScale Thermophoresis, 14-3-3 isoform gamma (Kd): aggr.
[2]
  Kd: > 215 µM
[3]
  Kd: 60 µM
[4]
  Kd: 19.4 ± 3 µM
  Affinity estimates by MicroScale Thermophoresis, 14-3-3 isoform sigma (Kd): none

## VLSSS[pS]CGSNS (also: phosphoserine at 670 (place in chain not given here)) [Sirt1^pS670 phospho-endecamer peptide]
[5]
  Kd: > 183 µM
[6]
  Kd: 93 µM
[7]
  Kd: 5 µM

## GRRSI[pS]FSVGA (also: phosphoserine at 103 (place in chain not given here)) [Sirt3^pS103 phospho-endecamer peptide]
[8]
  Kd: 10 µM
[5]
  Kd: > 267 µM
[6]
  Kd: 52 µM
[9]
  Kd: 1.5 µM and 2.1 µM

B1: Sirt3^S103 nonphosphorylated peptide (peptide)
chain: GRRSISFSVGA
modifications: none (nonphosphorylated Ser103). Limits are not given; they are taken from the 11-residue peptide in PDB 8ANC entity 2 (GRRSISFSVGA, S103 at position 6), assuming the same endecamer …
[10]
  Kd: ~881 µM

## B2
[11]
  binding result: binds
